Measurements as given in paper PMC13252604, “First Generation Proteolysis Targeting Chimeras (PROTACs) for the Treatment of Progeria” (Advanced Science, 2026).

Tests used:
[1] = Parallel artificial membrane permeability assay (PAMPA); format: in vitro ADME; conditions: read-out: P, permeability
Protocol: Pharmacokinetic properties, including solubility and membrane permeability, are critical in drug discovery but can pose challenges in PROTAC development […] The calculated logarithm of the partition coefficient between n‐octanol and water (clogP), determined using ACDLabs Percepta Software, indicated an acceptable lipophilicity for PROTAC 2 (clogP = 3.94), aligning with Lipinski's “rule of 5” (clogP<5). […] Compound permeability was assessed using the parallel artificial membrane permeability assay (PAMPA), which measures the ability of compounds to diffuse through a lipid‐infused artificial membrane. […] The cellular uptake of compound 2 was further confirmed by fluorescence microscopy, leveraging the intrinsic fluorescence of pomalidomide‐bearing derivatives (Figure S4).

[2] = test system: HGADFN167 Lmna^G608G/G608G fibroblasts; assay: Oxygen consumption rates (OCR) measurement; format: cell-based, human; conditions: HGADFN167, 5 µM, 20 days
From the text: FIGURE 6 (A) Representative cropped immunoblots and progerin quantification in human Lmna^G608G/G608G fibroblasts. MW, molecular weight (in kDa) markers. […] (B) PROTAC 2 increases cell proliferation (upper panels) and decreases the number of misshapen nuclei (lower panels). White arrows highlight selected misshapen nuclei. (C) PROTAC 2 decreases senescence‐associated β‐galactosidase (SA‐βgal) activity, interleukin (IL) 6, p16 and p21 senescent markers. Bar graphs show mean±sem of 2 (SA‐βgal and p21) or 3 (IL‐6 and p16) independent experiments performed in triplicate. (D) PROTAC 2 decreases phosphorylated histone 2AX (pH2AX) and increases trimethylated histone 3 (H3K9Me3) levels. (E) PROTAC 2 increases the oxygen consumption rate (OCR), ATP production and the number of healthy mitochondria in human progeroid cells. Bar graphs show mean±sem of 2 independent experiments performed in duplicate. […] Data were analysed using one‐way ANOVA followed by Dunnett's post–hoc test vs vehicle (panel A) or vs G608G cells (panels B‐E). ^*, p < 0.05; ^**, p < 0.01; ^***, p < 0.001; ^****, p < 0.0001. […]
Mitochondria were evaluated for the integrity of the membrane, matrix and cristae, and were classified as mitochondria with normal morphology (black arrows) or damaged mitochondria (red arrows, with alterations in the membrane, presence of inclusions in the matrix and concentric cristae or “onion-like” mitochondria). […]
ferrocyanide, 0.6 mL 5 M NaCl, 0.2 mL 0.2 M MgCl2, (all from Sigma Aldrich) and 6.2 mL of deionized water in a total volume of 20 mL] in the dark in a humidified incubator at 37 °C for 24 h without CO2 supply. Then, an equal volume of the supernatant of each well was transferred to a new 96-well plate for fluorescence measurement. The resultant production of fluorescein was measured using a FluoStar Optima instrument (BMG Labtech) with an excitation of 485 nm and emission at 535 nm. […]
Total RNA was extracted by RNAeasy Mini Kit (Qiagen) according to the manufacturer instructions and subsequently quantified using the NanoPhotometer N60 (Implen). […]

With `CC1(C)Oc2cc3oc(=O)ccc3cc2C[C@@H]1OC(=O)CCCCCNc1cccc2c1C(=O)N(C1CCC(=O)NC1=O)C2=O` (stereo partly shown) [compound 2] the Papp [1] was 6.7 ×10⁻⁶ cm/s, the ATP production [2] was “enhances” and the basal respiration [2] was “enhances”. The “oxygen consumption rate (OCR)” value [2] was “enhances OCR in human progeroid cells”.
